Source: patent US20110288014A1, “METHODS AND COMPOSITIONS FOR DIABETES TREATMENT AND PREVENTION” (TUM Technische Universitat Munchen, priority 2008, published 2011)
Entries after “also recorded” stand apart in the source; their conditions may differ.

How the values were obtained:
[1] = system: mouse adipocytes (cell line 3T3-L1); assay: 2-deoxyglucose (2-DG) uptake, resorufin assay; assay type: cell-based
Procedure: Mouse adipocytes (cell line 3T3-L1) as well as mouse myotubes (cell line C2C12) were cultivated under standard conditions and treated either with regular cell culture medium or insulin for 4 hours. Afterwards, cells were exposed to a combination of 2-deoxyglucose (2-DG) and the respective sample, either N-MP, coffee beverage (content of NMP in the coffee beverage: 26.7 mg/L) or a combination of both, for 2 hours. Then, cells were harvested and the 2-DG uptake was analyzed photometrically using the resorufin assay (Yamamoto, N.; Sato, T.; Kawasaki, K.; Murosaki, S.; Yamamoto, Y. A nonradioisotope, enzymatic assay for 2-deoxyglucose uptake in L6 skeletal muscle cells cultured in a 96-well microplate. Analytical Biochemistry 2006, 351, 139-145).

[2] = system: mouse adipocytes (cell line 3T3-L1); assay: 2-deoxyglucose (2-DG) uptake, resorufin assay; assay type: cell-based; conditions: for 2-DG uptake: first ten minutes after incubation, nearly independent of concentration
[3] = sample alone, no insulin cotreatment, compared to control cells

Molecule	2-deoxyglucose uptake in adipocytes ([1]; in combination with insulin)	2-deoxyglucose uptake in adipocytes [1, 3]	also measured
Cc1cc[n+](C)cc1 [N-4-Methylpicolinium]	substantial increase	substantial increase	2-DG uptake ([1]; alone or in combination with insulin, independently from the concentration used (FIGS. 10 and 11)): higher than 100%; 2-DG uptake ([1]; in some cases (FIG. 11, concurrent use of insulin)): > 200%
CCCCCCCCCCCCCCCC[n+]1ccccc1 [N-cetylpyridinium iodide]	excellent effects	excellent effects	2-DG uptake ([2]; alone (FIG. 16 left panel)): excellent results; 2-DG uptake ([2]; co-treatment with insulin (FIG. 16 right panel)): excellent results
Cc1ccc[n+](C)c1 [N-3-Methylpicolinium iodide]		substantial improvement	
N-methylpyridinium [N-MP]	significantly enhance the effect of insulin	increased; also recorded: best results and effects	2-DG uptake by mouse adipocytes ([2]; FIG. 2, in combination with insulin, treatment times 1 min and 10 min, compared with insulin alone): statistically higher extent than insulin alone; effectiveness of insulin on 2-deoxyglucose uptake ([1]; FIG. 5, in combination with coffee beverage and insulin): greatly enhance the effectiveness of insulin; 2-deoxyglucose uptake in adipocytes ([1]; sample alone, no insulin cotreatment, compared to control cells, listed as N-Methylpyridinium): enhance the uptake of 2-deoxyglucose in mouse adipocytes similarly insulin
C[n+]1ccccc1.[I-] [N-methylpyridinium iodide]	improved		
CC[n+]1ccccc1 [N-ethylpyridinium iodide]		good results	
